Experimental data reported in the supplement of paper PMC10307832.

Assays:
Test in all cases: relative viability (nuclei count vs DMSO), 5 days (fraction); higher = more cells survive
DM3189 + Palbociclib = compound: C1CN(CCN1)C2=CC=C(C=C2)C3=CN4C(=C(C=N4)C5=CC=NC6=CC=CC=C56)N=C3 [DM3189] + CC(=O)c1c(C)c2cnc(Nc3ccc(N4CCNCC4)cn3)nc2n(C2CCCC2)c1=O [Palbociclib] (partner 0.5 µM)
Method in brief: (§1)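 Lung cancer cell lines were pin-tool dosed in 1536-well plates on the day after seeding, with either a lone drug or a fixed anchor-drug dose plus five library-drug doses (not always all listed) in √10 steps. Nuclei were counted on 4× images after 5 days. Relative viability is the ratio of treated-well to vehicle-well nuclei counts, with each value a median of duplicate plates.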

DM3189 + Bortezomib = compound: C1CN(CCN1)C2=CC=C(C=C2)C3=CN4C(=C(C=N4)C5=CC=NC6=CC=CC=C56)N=C3 [DM3189] + CC(C)C[C@H](NC(=O)[C@H](Cc1ccccc1)NC(=O)c1cnccn1)B(O)O [Bortezomib] (partner 0.002 µM)
Method in brief: as §1

DM3189 + Lapatinib = compound: C1CN(CCN1)C2=CC=C(C=C2)C3=CN4C(=C(C=N4)C5=CC=NC6=CC=CC=C56)N=C3 [DM3189] + CS(=O)(=O)CCNCc1ccc(-c2ccc3ncnc(Nc4ccc(OCc5cccc(F)c5)c(Cl)c4)c3c2)o1 [Lapatinib] (partner 2 µM)
Method in brief: as §1

DM3189 + Pictilisib = compound: C1CN(CCN1)C2=CC=C(C=C2)C3=CN4C(=C(C=N4)C5=CC=NC6=CC=CC=C56)N=C3 [DM3189] + CS(=O)(=O)N1CCN(Cc2cc3nc(-c4cccc5[nH]ncc45)nc(N4CCOCC4)c3s2)CC1 [Pictilisib] (partner 1 µM)
Method in brief: as §1

DM3189 + Pemetrexed = compound: C1CN(CCN1)C2=CC=C(C=C2)C3=CN4C(=C(C=N4)C5=CC=NC6=CC=CC=C56)N=C3 [DM3189] + Nc1nc2[nH]cc(CCc3ccc(C(=O)N[C@@H](CCC(=O)O)C(=O)O)cc3)c2c(=O)[nH]1 [Pemetrexed] (partner 0.2 µM)
Method in brief: as §1

Cell Line | relative viability (DM3189 + Palbociclib; first compound 0.08 µM) | relative viability (DM3189 + Palbociclib; first compound 0.253 µM) | relative viability (DM3189 + Palbociclib; first compound 0.8 µM) | relative viability (DM3189 + Palbociclib; first compound 2.53 µM) | relative viability (DM3189 + Bortezomib; first compound 0.08 µM) | relative viability (DM3189 + Bortezomib; first compound 0.253 µM) | relative viability (DM3189 + Bortezomib; first compound 0.8 µM) | relative viability (DM3189 + Bortezomib; first compound 2.53 µM) | relative viability (DM3189 + Lapatinib; first compound 0.08 µM) | relative viability (DM3189 + Lapatinib; first compound 0.253 µM) | relative viability (DM3189 + Lapatinib; first compound 0.8 µM) | relative viability (DM3189 + Lapatinib; first compound 2.53 µM) | relative viability (DM3189 + Pictilisib; first compound 0.08 µM) | relative viability (DM3189 + Pictilisib; first compound 0.253 µM) | relative viability (DM3189 + Pictilisib; first compound 0.8 µM) | relative viability (DM3189 + Pictilisib; first compound 2.53 µM) | relative viability (DM3189 + Pemetrexed; first compound 0.08 µM) | relative viability (DM3189 + Pemetrexed; first compound 0.253 µM) | relative viability (DM3189 + Pemetrexed; first compound 0.8 µM) | relative viability (DM3189 + Pemetrexed; first compound 2.53 µM)
LOU-NH91 | 0.514 | 0.53 | 0.501 | 0.562 | 0.487 | 0.529 | 0.463 | 0.443 | 0.76 | 0.704 | 0.544 | 0.605 | 0.534 | 0.517 | 0.477 | 0.519 | 0.375 | 0.407 | 0.331 | 0.368
LU99A | 0.482 | 0.372 |  | 0.365 | 1.23 | 1.01 |  | 1.04 | 1.02 | 0.879 |  | 0.987 | 0.32 | 0.263 |  | 0.316 | 0.185 | 0.233 |  | 0.161
LXF-289 | 0.597 | 0.606 | 0.565 | 0.562 | 1 | 0.929 | 0.988 | 1.11 | 0.9 | 0.934 | 0.868 | 0.981 | 0.834 | 0.773 | 0.775 | 0.935 | 0.932 | 0.986 | 0.897 | 0.917
NCI-H23 | 0.468 | 0.43 | 0.496 | 0.485 | 1.18 | 0.825 | 0.928 | 1.02 | 1.32 | 0.888 | 0.994 | 1.19 | 0.637 | 0.462 | 0.385 | 0.442 | 0.759 | 0.635 | 0.641 | 0.676
NCI-H322M | 0.501 | 0.489 | 0.516 | 0.43 | 1.25 | 1.38 | 1.19 | 1.23 | 0.651 | 0.633 | 0.508 | 0.603 | 0.565 | 0.526 | 0.462 | 0.447 | 0.64 | 0.582 | 0.557 | 0.501
NCI-H460 | 0.305 | 0.187 | 0.158 | 0.16 | 1.19 | 1.07 | 1.06 | 0.255 | 1.45 | 1.03 | 0.825 | 0.235 | 0.387 | 0.464 | 0.223 | 0.43 | 0.0522 | 0.0522 | 0.0641 | 0.0646
NCI-H520 | 0.206 | 0.202 | 0.206 | 0.173 | 0.503 | 0.345 | 0.429 | 0.368 | 0.902 | 0.679 | 0.644 | 0.42 | 0.28 | 0.234 | 0.219 | 0.19 | 0.603 | 0.492 | 0.49 | 0.296
NCI-H647 | 0.4 | 0.378 | 0.273 | 0.217 | 1.08 | 0.871 | 0.667 | 0.35 | 1.36 | 0.823 | 0.622 | 0.463 | 0.381 | 0.334 |  | 0.381 | 0.185 | 0.178 | 0.173 | 0.146
